Tests used:
2LMP ALDH+ cells [1] = assay: Annexin V-propidium iodide apoptosis assay (flow cytometry); assay type: cell-based, human; conditions: 5 μM MRK003
Method: 2LMP ALDH^+ cells were sorted by flow cytometry and treated with MRK003 GSI (or DMSO) for 24 hours followed by TRA-8 (or media) for an additional 24 hours before measuring ATP levels. […] Similar results were found in studies using CSC-enriched cell populations derived from sphere cultures. The results were confirmed using annexin V-propidium iodide assays and flow cytometry to measure apoptosis.

[2] = system: 2LMP and SUM159 ALDH+ tumorsphere cells; assay: Secondary tumorsphere formation; assay type: cell-based, human; conditions: 2LMP and SUM159 sphere cells; TRAIL and 2E12 at concentrations equimolar to TRA-8
Method: Bars are normalized relative to untreated control and represent quadruplicate runs. Error bars denote standard deviation (SD).
(§1) • Drugs and Antibodies. Adriamycin and Taxol were purchased from Sigma Aldrich Chemical Co. (St. Louis, Mo.) and prepared as 10 mM stock solutions in distilled H2O or DMSO, respectively. Purified TRA-8 (IgG1) mAb was prepared as described previously (Ichikawa et al., Nat. Med. 7:954-60 (2001) and WO01/83560). Isotype-specific IgG1 control antibody was obtained from Southern Biotechnology Associates (Birmingham, Ala.). Anti-DR4 mAb 2E12 (IgG1, k) was described previously (WO03/37913). Super Killer TRAIL™ was purchased from Alexis Biochemicals (Plymouth Meeting, Pa.). Conjugated antibodies APC mouse anti-human CD44, PE-Cy7 rat anti-mouse CD44, and corresponding isotype control antibodies were purchased from BD Pharmingen (San Jose, Calif.). ALDEFLUOR® kit including diethylaminobenzaldehyde (DEAB) negative control was obtained from StemCell Technologies (Durham, N.C.). Cleaved caspase-8 rabbit mAb and cleaved caspase-3 rabbit mAb were purchased from Cell Signaling (Billerica, Mass.). Secondary antibodies, Alexa tluor 405 goat anti-rabbit IgG and Alexa fluor 647 goat anti-mouse IgG1 were purchased from Invitrogen (Carlsbad, Calif.). • Cells and Cell Culture. The 2LMP subclone of the human breast cancer cell line MDA-MB-231 was maintained in improved MEM supplemented with 10% FBS (Hyclone; Logan, Utah). […] BCSC markers were analyzed on attached bulk cell populations. […] Samples were sorted on a Becton-Dickinson-FACSAriaII™ or analyzed on Becton-Dickinson-LSRII™ flow cytometer (Chicago, Ill.). Data were evaluated using FlowJo software (FlowJo; Ashland, Oreg.). • DR5 Expression and Functional Caspase Activation. […] Samples were analyzed by flow cytometry for DR5 expression on the ALDH^+/CD44^+/CD24^− subpopulation. […]

2LMP ALDH+ cells [3] = assay: Ex vivo treatment of sorted BCSC and tumor implantation; assay type: in vivo, NOD/SCID mice; conditions: cells treated ex vivo with 500 nM Adriamycin for 3 hours, 4×10^4 cells into mammary fat pad; by day 51
Method: (§2) FIGS. 14A and 14B are graphs showing ex vivo treatment of sorted BCSCs inhibited tumorigenesis and progression in NOD/SCID mice. The graphs represent average tumor size (product of two diameters).
as §1, with “Calif.).” for “Calif.). ALDEFLUOR® kit including diethylaminobenzaldehyde (DEAB) negative control was obtained from StemCell Technologies (Durham, N.C.). Cleaved caspase-8 rabbit mAb and cleaved caspase-3 rabbit mAb were purchased from Cell Signaling (Billerica, Mass.). Secondary antibodies, Alexa tluor 405 goat anti-rabbit IgG and Alexa fluor 647 goat anti-mouse IgG1 were purchased from Invitrogen (Carlsbad, Calif.). • Cells and Cell Culture. The 2LMP subclone of the human breast cancer cell line MDA-MB-231 was maintained in improved MEM supplemented with 10% FBS (Hyclone; Logan, Utah).”

SUM159 ALDH+ cells = assay: as above; assay type: in vivo, NOD/SCID mice; conditions: cells treated ex vivo with 500 nM Adriamycin for 3 hours, implanted into mammary fat pad
Method: as §2
as §1, with “Calif.).” for “Calif.). ALDEFLUOR® kit including diethylaminobenzaldehyde (DEAB) negative control was obtained from StemCell Technologies (Durham, N.C.). Cleaved caspase-8 rabbit mAb and cleaved caspase-3 rabbit mAb were purchased from Cell Signaling (Billerica, Mass.). Secondary antibodies, Alexa tluor 405 goat anti-rabbit IgG and Alexa fluor 647 goat anti-mouse IgG1 were purchased from Invitrogen (Carlsbad, Calif.). • Cells and Cell Culture. The 2LMP subclone of the human breast cancer cell line MDA-MB-231 was maintained in improved MEM supplemented with 10% FBS (Hyclone; Logan, Utah).”

O=S1(=O)N[C@@]2(CN1CC(F)(F)F)[C@@H]1CC[C@H]2Cc2ccc(/C=C/CN3CCC(C(F)(F)F)CC3)cc2C1 [MRK003]
annexin-V-positive (2LMP ALDH+ cells [1]): 36%

CC(=O)O[C@H]1C(=O)[C@@]2(C)[C@H]([C@H](OC(=O)c3ccccc3)[C@]3(O)C[C@H](OC(=O)[C@H](O)[C@@H](NC(=O)c4ccccc4)c4ccccc4)C(C)=C1C3(C)C)[C@]1(OC(C)=O)CO[C@@H]1C[C@@H]2O [Taxol]
inhibition of secondary tumorsphere formation (in words) [2]: did not completely inhibit

COc1cccc2c1C(=O)c1c(O)c3c(c(O)c1C2=O)C[C@@](O)(C(=O)CO)C[C@@H]3O[C@H]1C[C@H](N)[C@H](O)[C@H](C)O1 [Adriamycin]
inhibition of secondary tumorsphere formation (in words) [2]: did not completely inhibit
mice that developed tumors (2LMP ALDH+ cells [3]): Five out of five
mice that developed tumors (SUM159 ALDH+ cells): zero out of five

B1: TRAIL: Super Killer TRAIL™ purchased from Alexis Biochemicals; death receptor ligand (protein, UniProt P50591 39-281, looked up)
extracellular domain: TNELKQMQDKYSKSGIACFLKEDDSYWDPNDEESMNSPCWQVKWQLRQLVRKMILRTSEETISTVQEKQQNISPLVRERGPQRVAAHITGTRGRSNTLSSPNSKNEKALGRKINSWESSRSGHSFLSNLHLRNGELVIHEKGFYYIYSQTYFRFQEEIKENTKNDKQMVQYIYKYTSYPDPILLMKSARNSCWSKDAEYGLYSIYQGGIFELKENDRIFVSVTNEHLIDMDHEASFFGAFLVG
modifications: extracellular domain Super Killer TRAIL engineered soluble form
notes: Super Killer TRAIL™ purchased from Alexis Biochemicals; death receptor ligand
inhibition of secondary tumorsphere formation (in words) [2]: only partially inhibitory
